Measurements published in the METLIN SMRT retention time set (Domingo-Almenara et al. 2019).

Assay: gradient 5% acetonitrile 3 min, to 50% in 2 min, to 85% in 15 min, held 3 min, 100 µL/min
Settings: column: Zorbax Extend-C18 2.1 x 50 mm; eluents: water / acetonitrile, 0.1% formic acid
Outline: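 Over 3 months, pure standards in mixtures of ~100 molecules were run by HPLC coupled to a quadrupole time-of-flight mass spectrometer in positive and negative ionization mode. The column was a Zorbax Extend-C18 (2.1 × 50 mm, 1.8 μm) at 100 μL/min, eluted with water and acetonitrile each holding 0.1% formic acid, with 40 μL dead and 900 μL dwell volumes. Retention time was determined from adduct peaks chosen by software and checked manually.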

Row | RP-LC retention time [s] | Compound
1 | 844 | COc1ccc(CNC2=NCCNC23CCN(S(=O)(=O)c2ccc(C(C)(C)C)cc2)CC3)cc1
2 | 610 | Cc1ccc(CNC(=O)C(=O)NCC(c2ccc3c(c2)CCCN3C)N2CCOCC2)cc1 (centres undefined)
3 | 802 | Cc1ccccc1Nc1c(-c2ccc(Cl)cc2)nc2c(C)cccn12
4 | 830 | CCOc1ccc(-c2cn3ccn(-c4ccc(OC)cc4)c(=O)c3n2)cc1
5 | 592 | O=C(NCCc1cccs1)c1cccc2[nH]cc(CN3CCOCC3)c12
6 | 798 | Cc1cc(C)cc(NC(=O)CN2CCN(Cc3ccc(F)cc3)C(=O)C2=O)c1
7 | 724 | Cc1cc(Nc2nc(C(=O)NCCCN3CCOCC3)cc3occc23)ccc1Br
8 | 677 | CCN(CC)CCNC(=O)c1nc(-c2oc3c(C)cccc3c2C)no1
9 | 568 | CN(CC(=O)Nc1cccnc1)c1nc2ccccc2s1
10 | 657 | COCCNc1nc(-c2cccc(Cl)c2)nnc1C
11 | 599 | Cc1cc(N2CCN(C)CC2)nc2ccc(NC(=S)NCc3ccc(F)cc3)cc12
12 | 769 | COc1cc(C(=O)N2CCC[C@@H]2C(=O)NCc2csc(-c3ccccc3)n2)cc(OC)c1OC
13 | 1150 | Cc1c(C(=O)NCC(C)C)cnn1-c1cc(-c2nc(C(C)(C)C)no2)ccn1
14 | 680 | CCOC(=O)Cc1ccc(NC(=O)NCc2c(C)nn(C)c2C)cc1
15 | 727 | O=C(NCc1ccccc1)C1CC(=O)N(c2ccc3c(c2)CCN3C(=O)C2CC2)C1 (centres undefined)
16 | 631 | O=C(Nc1cnc(N2CCCC2)c(C(=O)O)c1)c1ccc(Cl)cc1
17 | 589 | CN1C(=O)c2cc(C(=O)NCCCN3CCCC3)nn2CC1(C)C(=O)NCc1ccccc1 (centres undefined)
18 | 498 | COC[C@@H]1CN(c2cnccn2)C[C@H]1C(=O)NCCn1ccnc1
19 | 1050 | COc1ccc(C2(C(=O)N3CCC(Cc4nc(-c5ccccc5)no4)CC3)CC2)cc1
20 | 642 | COC(=O)c1ccc(Cn2nc(C3CCN(S(C)(=O)=O)CC3)n(C)c2=O)cc1
21 | 908 | CCC(=O)Nc1ccc(C2(C(=O)N3CCN(c4cccc(C)c4)CC3)CCC2)cc1
22 | 820 | CCc1nnc2cc(N3CCN(S(=O)(=O)c4ccc(C(C)C)cc4)CC3)cnn12
23 | 941 | Cc1ccc(-c2noc(-c3cccc(S(=O)(=O)Nc4cccnc4)c3)n2)cc1

Row | RP-LC retention time [s] | Compound
24 | 1050 | CC1CCC(C(=O)Nc2cc3c(cc2N2CCCCC2)n(C)c(=O)c(=O)n3C)CC1 (centres undefined)
25 | 659 | CC(C)CN1C(=O)c2ccccc2C(C(=O)NCc2cccnc2)C12CCCCC2 (centres undefined)
26 | 613 | Cc1cc(N2CCN(C(=O)c3c(F)cccc3F)CC2)nc(N2CCOCC2)n1
27 | 625 | CCOc1ccc(S(=O)(=O)N(CC(=O)N2CCNCC2)C(C)C)cc1
28 | 658 | CN1C(=O)c2cccn2CC1CNC(=O)NCc1ccc(F)cc1 (centres undefined)
29 | 776 | COc1ccccc1-n1ccn2cc(-c3ccc4c(c3)OCO4)nc2c1=O
30 | 595 | CC(C)(C)c1ccc(-c2nc(NCCCN3CCOCC3)c3ccccc3n2)cc1
31 | 651 | CC1CCCCN1CCCNC(=O)CN1C(=O)CSc2cccn2-c2ccccc21 (centres undefined)
32 | 1100 | COc1ccc(S(=O)(=O)N2CCC(c3noc(-c4cccc(F)c4)n3)CC2)cc1
33 | 1080 | Cc1ccc(S(=O)(=O)N2CC=C(c3cn(C)c4ncccc34)CC2)cc1C
34 | 668 | CCc1cc(=O)n(CC(=O)N2CCN(c3ccc(OC)cc3)CC2)c(N2CCOCC2)n1
35 | 725 | CC(C)CNC(=O)C1CCCN(c2ncnc3c2oc2ccccc23)C1 (centres undefined)
36 | 736 | CC(C)(Oc1ccc(Cl)cc1)C(=O)NCC1(O)CCc2ccccc21 (centres undefined)
37 | 731 | CNc1cc(C)nc2c(-c3ccc(Cl)cc3)cnn12
38 | 844 | CNC(=O)Nc1ccc(C2(C(=O)Nc3ccc4c(c3)CCC4)CCC2)cc1
39 | 664 | O=C(NCCc1noc(C2CC2)n1)c1ccoc1
40 | 607 | CCC(=O)N1CCN(c2nc3c(s2)CC(C(=O)Nc2ccc(C)cc2Cl)CC3)CC1 (centres undefined)
41 | 829 | CCNc1cc(C)nc(N2CCN(S(=O)(=O)c3ccc(-c4ccccc4)cc3)CC2)n1
42 | 809 | O=C(c1ccsc1)N1CCN(c2cc(-c3ccc(Cl)cc3)[nH]n2)CC1
43 | 1080 | Cc1ccc(C)c(NC(=O)Cn2nc3c(Oc4ccc(C(C)C)cc4)nccn3c2=O)c1
44 | 608 | Cn1cc(CCN2CCN(S(=O)(=O)c3cccc(C#N)c3)CC2)c2cccnc21
45 | 895 | COC(=O)C1=CN(c2cccc(Cl)c2)c2ccc(F)cc2S1(=O)=O
46 | 664 | Cc1ccc2oc(N3CCCN(C(=O)c4ccc(-c5noc(C(C)C)n5)cc4)CC3)nc2n1

Row | RP-LC retention time [s] | Compound
47 | 843 | CCC(C)NC(=O)N1CCCN(C2=NS(=O)(=O)C(c3ccc(C)c(C)c3)=C2C)CC1 (centres undefined)
48 | 790 | Cc1noc(C)c1S(=O)(=O)N1CCC(N2CC3(CCCCC3)C2c2ccccc2)CC1 (centres undefined)
49 | 1320 | Cc1ccc(C)c(-c2cc3c(=O)n(Cc4nc(-c5ccc(Br)cc5)no4)ncn3n2)c1
50 | 842 | O=C(NCCc1ccsc1)Nc1ccccc1C(F)(F)F
51 | 983 | CCCn1c(=O)sc2cc(S(=O)(=O)N3CCC(C(=O)Nc4cccc(F)c4)CC3)ccc21
52 | 764 | O=C(c1nnc(-c2ccc(S(=O)(=O)N3CCCC3)cc2)o1)N1CCCC1
53 | 711 | COCCCNC(=O)c1ccc2c(c1)N(Cc1ccc(F)cc1)C(=O)CO2
54 | 958 | O=C(Cn1ccc2ccc(N3CCOCC3)nc21)NCc1ccc(C(F)(F)F)cc1
55 | 845 | CCc1ccc(CNC(=O)C2CCCN(C(=O)c3[nH]c(C)c(C(=O)OC)c3C)C2)cc1 (centres undefined)
56 | 805 | COc1cccc(N2CCN(c3ccnc(SCC(=O)Nc4ccc(Cl)cc4)n3)CC2)c1
57 | 1070 | Cc1ccc(-c2nnc(-c3nn(C)c4c3CN(S(=O)(=O)c3ccc(Cl)cc3)CC4)o2)cc1
58 | 881 | O=c1c(=O)n(-c2cccc(Cl)c2)ccn1Cc1nc(-c2ccc(F)cc2)no1
59 | 880 | COc1ccc(OC)c(NC2=NS(=O)(=O)C(c3ccc(F)cc3)=C2C)c1
60 | 813 | NS(=O)(=O)c1nn2cc(-c3ccccc3)nc2s1
61 | 752 | COc1ccc(-c2csc(NC(=O)/C=C/C(=O)O)n2)cc1
62 | 725 | CCC(=O)N1CCCc2cc(NC(=O)c3ccco3)ccc21
63 | 737 | COc1cc(NC(=O)N2CCC(C)(C(=O)NCc3ccc(F)cc3)CC2)cc(OC)c1OC
64 | 691 | Cc1sc(NC(=O)c2ccco2)c(CN2CCN(c3ccc(F)cc3)CC2)c1C
65 | 920 | CC(C)C(NC(=O)c1ccco1)C(=O)N1CCC(c2noc(-c3ccccc3)n2)CC1 (centres undefined)
66 | 604 | CCC(=O)N1CCN(c2nc(C)cc(N3CCCC3)n2)CC1
67 | 1040 | CCCCc1ccc(N2C(=O)CC(c3ccc(OC)c(OC)c3)CC2=O)cc1
68 | 861 | CC1=C(c2ccc(F)cc2)S(=O)(=O)N=C1N1CCC(NC(=O)NC(C)C)CC1
69 | 787 | CCN(CC)C(=O)c1c(C)oc2ccn(Cc3ccc(F)cc3)c(=O)c12

Row | RP-LC retention time [s] | Compound
70 | 539 | O=C(Cn1nc2ncccn2c1=O)NCc1ccco1
71 | 774 | O=C(NCc1ccccc1)c1ccc(CN2CCN(Cc3ccc(F)cc3)C(=O)C2=O)cc1
72 | 907 | CCOC(=O)c1ccccc1NC(=O)N(CC)Cc1cc(=O)[nH]c2ccccc12
73 | 848 | O=C1CC(c2ccccc2)N(S(=O)(=O)c2cccc3nsnc23)CCCCCN1 (centres undefined)
74 | 872 | COc1ccc(-c2cnn(CC(=O)Nc3cc(F)cc(F)c3)c(=O)n2)cc1
75 | 652 | Cc1cccc(NS(=O)(=O)c2cc3n(c2)CCCNC3=O)c1
76 | 582 | CN(C)C(=O)c1ccc2oc(CN3CCN(C(=O)NCc4ccco4)CC3)nc2c1
77 | 1190 | CCn1c(=O)oc2cc(-c3noc(-c4ccc(F)cc4Cl)n3)ccc21
78 | 1090 | COc1ccc(-c2noc(-c3nc(C4CC4)no3)n2)cc1
79 | 734 | COCCCCC(=NOCCN)c1ccc(C(F)(F)F)cc1
80 | 808 | Cc1cc(-c2nnc(-c3ccc(F)cc3)o2)c(C)n1CC(=O)N1CCCC1
81 | 780 | O=C(NCC1CCCO1)c1cnn2c(-c3ccc4c(c3)OCO4)ccnc12 (centres undefined)
82 | 587 | Cc1cccc(-c2nc(NCc3ccncc3)ncc2C(=O)O)c1
83 | 1120 | O=C(Nc1nc(-c2ccc(Br)s2)cs1)c1ccc([N+](=O)[O-])s1
84 | 848 | Cc1ccc(NC(=O)Cn2c(=O)n(-c3ccccc3)c3ncccc32)c(C)c1
85 | 582 | Cc1nccn1C1CN(C(=O)c2ccc3cc[nH]c3c2)C1
86 | 944 | CCc1ccc(NC(=O)C2CCN(S(C)(=O)=O)c3cc(Cl)ccc3O2)cc1 (centres undefined)
87 | 1100 | COc1ccc(C)cc1NC(=O)Nc1ccc2c(c1)CCN2S(=O)(=O)c1ccc(C)cc1
88 | 785 | O=C(NCC1CCCO1)c1nc2ccccn2c1-c1ccc(Cl)cc1 (centres undefined)
89 | 626 | O=C(C1CCN(c2ccc(Sc3cccc(F)c3)nn2)CC1)N1CCN(c2ccccn2)CC1
